Like-named read-outs stand apart in the source and are kept apart here.
How the values were obtained:
ABHD6 [1] = target: T1, ABHD6 (Mus musculus (Mouse), UniProt Q8R2Y0); test: Mouse brain proteomes from inhibitor treated mice (oral gavage, sacrificed 4 h after administration, ABPP analysis), ABHD6; type: in vivo, mouse (C57Bl/6J); settings: 5 mg/kg oral gavage
Description: (§1) Preparation of Mouse Brain Proteomes from Inhibitor Treated Mice.
(§2) Inhibitors were administered to wild-type C57Bl/6J by oral gavage in a vehicle, e.g. PEG400/Ethanol/PBS (7/2/1). Each animal was sacrificed 4 h following administration and brain proteomes were prepared and analyzed according to previously established methods (See Niphakis, M. J., et al. (2011) ACS Chem. Neurosci. and Long, J. Z., et al. Nat. Chem. Biol. 5:37-44). Data from this assay is shown in Table 2 (% inhibition at 5 mg/kg).

MAGL [2] = target: T2, MAGL (Mus musculus (Mouse), UniProt O35678); test: Mouse brain proteomes from inhibitor treated mice (oral gavage, sacrificed 4 h after administration, ABPP analysis); type: in vivo, mouse (C57Bl/6J); settings: 5 mg/kg oral gavage
T2 sequence (O35678 whole entry): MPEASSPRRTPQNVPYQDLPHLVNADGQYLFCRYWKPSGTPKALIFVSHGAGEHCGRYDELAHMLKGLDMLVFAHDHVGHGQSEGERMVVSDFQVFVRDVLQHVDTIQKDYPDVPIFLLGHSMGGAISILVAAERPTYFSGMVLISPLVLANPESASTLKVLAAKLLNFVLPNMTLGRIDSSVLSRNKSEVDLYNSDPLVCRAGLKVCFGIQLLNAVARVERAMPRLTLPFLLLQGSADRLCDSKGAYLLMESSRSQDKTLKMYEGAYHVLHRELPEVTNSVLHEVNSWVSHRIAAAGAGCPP
Description: as §1, §2

FAAH [3] = target: T3, FAAH (Mus musculus (Mouse), UniProt O08914); test: Mouse brain proteomes from inhibitor treated mice (oral gavage, sacrificed 4 h after administration, ABPP analysis), FAAH; type: in vivo, mouse (C57Bl/6J); settings: 5 mg/kg oral gavage
T3 sequence (O08914 whole entry): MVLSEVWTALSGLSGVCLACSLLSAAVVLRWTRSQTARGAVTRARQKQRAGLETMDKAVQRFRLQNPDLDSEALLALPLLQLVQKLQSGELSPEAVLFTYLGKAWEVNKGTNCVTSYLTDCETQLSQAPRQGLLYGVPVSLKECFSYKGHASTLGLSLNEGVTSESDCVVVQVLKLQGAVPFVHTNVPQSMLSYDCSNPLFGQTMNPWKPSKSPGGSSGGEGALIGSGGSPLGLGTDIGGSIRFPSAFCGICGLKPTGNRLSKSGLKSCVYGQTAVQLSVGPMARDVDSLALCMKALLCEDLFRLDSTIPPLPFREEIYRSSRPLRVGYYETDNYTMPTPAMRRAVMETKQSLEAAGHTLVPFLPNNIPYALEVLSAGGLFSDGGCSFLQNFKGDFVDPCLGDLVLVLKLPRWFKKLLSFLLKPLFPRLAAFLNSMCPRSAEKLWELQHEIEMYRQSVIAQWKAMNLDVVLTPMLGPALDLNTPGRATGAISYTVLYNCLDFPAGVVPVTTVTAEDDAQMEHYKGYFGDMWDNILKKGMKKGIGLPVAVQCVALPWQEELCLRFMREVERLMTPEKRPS
Description: as §1, §2

ABHD6 [4] = target: T1, ABHD6; test: In vitro competitive activity-based protein profiling (mouse brain membrane fraction or cell lysates), ABHD6 band; type: biochemical; settings: for inhibition at 1 µM: read-out: ABHD6 % Inh 1 μM (mouse); for IC50: competitive ABPP
Method in brief: (§3)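 Competitive ABPP: proteome 1.0 mg/mL protein + inhibitor, 30 min, 37° C; FP-Rh probe (stock 50 μM in DMSO) added, 30 min, 37° C; SDS quench, SDS-PAGE, fluorescent band intensity read.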

FAAH [5] = target: T3, FAAH; test: In vitro competitive activity-based protein profiling (mouse brain membrane fraction or cell lysates), FAAH band; type: biochemical; settings: for inhibition at 1 µM: read-out: FAAH % Inh 1 μM (mouse); for IC50: competitive ABPP
Method in brief: as §3

MAGL [6] = target: T2, MAGL; test: In vitro competitive activity-based protein profiling (mouse brain membrane fraction or cell lysates), MAGL band; type: biochemical; settings: for inhibition at 1 µM: read-out: MAGL % Inh 1 μM (mouse); for IC50: competitive ABPP
Description: In Vitro Competitive Activity-Based Protein Profiling.
Proteomes (mouse brain membrane fraction or cell lysates) (50 μL, 1.0 mg/mL total protein concentration) were preincubated with varying concentrations of inhibitors at 37° C. After 30 min, FP—Rh (1.0 μL, 50 μM in DMSO) was added and the mixture was incubated for another 30 min at 37° C. Reactions were quenched with SDS loading buffer (50 μL-4×) and run on SDS-PAGE.

T1 sequence (Q8R2Y0 whole entry): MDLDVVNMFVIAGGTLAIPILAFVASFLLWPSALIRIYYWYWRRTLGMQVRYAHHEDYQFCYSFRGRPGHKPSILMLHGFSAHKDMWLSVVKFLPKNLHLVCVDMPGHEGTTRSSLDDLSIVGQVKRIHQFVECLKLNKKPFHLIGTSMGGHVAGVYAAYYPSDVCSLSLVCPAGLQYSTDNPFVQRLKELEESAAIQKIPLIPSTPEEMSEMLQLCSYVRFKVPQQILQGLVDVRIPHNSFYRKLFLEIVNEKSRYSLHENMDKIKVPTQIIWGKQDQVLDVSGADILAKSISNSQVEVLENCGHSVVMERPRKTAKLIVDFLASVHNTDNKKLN

SMILES	ABHD6 % Inh 5 mg/kg (mouse) (ABHD6 [1])	MAGL % Inh 5 mg/kg (mouse) (MAGL [2])	FAAH % Inh 5 mg/kg (mouse) (FAAH [3])	inhibition at 1 µM (ABHD6 [4]; mouse proteome)	IC50 (ABHD6 [4]; mouse proteome)	inhibition at 1 µM (FAAH [5]; mouse proteome)	IC50 (FAAH [5]; mouse proteome)	inhibition at 1 µM (MAGL [6]; mouse proteome)	IC50 (MAGL [6]; mouse proteome)	inhibition at 1 µM (ABHD6 [4]; mouse)	inhibition at 1 µM (FAAH [5]; mouse)	inhibition at 1 µM (MAGL [6]; mouse)
CCOc1ccc(CN2CCCC23CCN(C(=O)OC(C(F)(F)F)C(F)(F)F)CC3)cc1 [Example 4, 1,1,1,3,3,3-Hexafluoropropan-2-yl 1-(4-ethoxybenzyl)-1,8-diazaspiro[4.5]decane-8-carboxylate]	# (# is <25%)	### (### is ≥75%)	# (# is <25%)	< 25%	> 1 µM	< 25%	> 1 µM	> 75%	0.1 to 1 µM	–	–	–
CCOc1cccc(CN2CCCC23CCN(C(=O)OC(C(F)(F)F)C(F)(F)F)CC3)c1 [Example 5, 1,1,1,3,3,3-Hexafluoropropan-2-yl 1-(3-ethoxybenzyl)-1,8-diazaspiro[4.5]decane-8-carboxylate]	## (## is equal to or greater than 25% but less than 75%)	### (### is ≥75%)	# (# is <25%)	< 25%	> 1 µM	< 25%	> 1 µM	> 75%	< 0.1 µM	–	–	–
COc1cccc(CN2CCCC23CCN(C(=O)OC(C(F)(F)F)C(F)(F)F)CC3)c1Cl [Example 7, 1,1,1,3,3,3-Hexafluoropropan-2-yl 1-(2-chloro-3-methoxybenzyl)-1,8-diazaspiro[4.5]decane-8-carboxylate]	# (# is <25%)	### (### is ≥75%)	### (### is ≥75%)	–	> 1 µM	–	> 1 µM	–	< 0.1 µM	–	–	–
CC1(C)CC2(CCN(C(=O)OC(C(F)(F)F)C(F)(F)F)CC2)CN1Cc1cc(Cl)ccc1N1CCOCC1 [Example 187, 1,1,1,3,3,3-Hexafluoropropan-2-yl 2-(5-chloro-2-morpholinobenzyl)-3,3-dimethyl-2,8-diazaspiro[4.5]decane-8-carboxylate]	–	–	–	≥ 75%	0.1 to 1 µM	< 25%	> 1 µM	> 75%	< 0.1 µM	–	–	–
CC1(C)CC2(CCN(C(=O)OC(C(F)(F)F)C(F)(F)F)CC2)CN1Cc1cc(N2CCOCC2)cc(C(F)(F)F)c1 [Example 188, 1,1,1,3,3,3-Hexafluoropropan-2-yl 3,3-dimethyl-2-(3-morpholino-5-(trifluoromethyl)benzyl)-2,8-diazaspiro[4.5]decane-8-carboxylate]	–	–	–	25 to 75%	0.1 to 1 µM	< 25%	> 1 µM	> 75%	0.1 to 1 µM	–	–	–
CC1(C)CC2(CCN(C(=O)OC(C(F)(F)F)C(F)(F)F)CC2)CN1Cc1cccc(OC(F)(F)F)c1N1CCOCC1 [Example 190, 1,1,1,3,3,3-Hexafluoropropan-2-yl 3,3-dimethyl-2-(2-morpholino-3-(trifluoromethoxy)benzyl)-2,8-diazaspiro[4.5]decane-8-carboxylate]	–	–	–	< 25%	> 1 µM	< 25%	> 1 µM	> 75%	< 0.1 µM	–	–	–
CC1(C)CC2(CCN(C(=O)OC(C(F)(F)F)C(F)(F)F)CC2)CN1Cc1cccc(CN2CCOCC2)c1F [Example 191, 1,1,1,3,3,3-Hexafluoropropan-2-yl 2-(2-fluoro-3-(morpholinomethyl)benzyl)-3,3-dimethyl-2,8-diazaspiro[4.5]decane-8-carboxylate]	–	–	–	25 to 75%	> 1 µM	< 25%	> 1 µM	> 75%	0.1 to 1 µM	–	–	–
CC1(C)CC2(CCN(C(=O)OC(C(F)(F)F)C(F)(F)F)CC2)CN1Cc1cc(CN2CCOCC2)ccc1OC(F)(F)F [Example 192, 1,1,1,3,3,3-Hexafluoropropan-2-yl 3,3-dimethyl-2-(5-(morpholinomethyl)-2-(trifluoromethoxy)benzyl)-2,8-diazaspiro[4.5]decane-8-carboxylate]	–	–	–	25 to 75%	0.1 to 1 µM	< 25%	> 1 µM	> 75%	< 0.1 µM	–	–	–
O=C(O)C1CCN(c2cc(CN3CCCC34CCN(C(=O)OC(C(F)(F)F)C(F)(F)F)CC4)cc(OC(F)(F)F)c2)CC1 [Example 207]	–	–	–	< 25%	–	< 25%	–	> 75%	–	–	–	–
O=C(O)[C@@H]1CCCN(c2cc(CN3CCC4(CCN(C(=O)OC(C(F)(F)F)C(F)(F)F)CC4)C3)cc(C(F)(F)F)c2)C1 [Example 208]	–	–	–	≥ 75%	–	< 25%	–	> 75%	–	–	–	–
O=C(O)[C@@H]1CCCN(c2cc(CN3CCCC34CCN(C(=O)OC(C(F)(F)F)C(F)(F)F)CC4)cc(C(F)(F)F)c2)C1 [Example 212]	–	–	–	< 25%	–	< 25%	–	> 75%	–	–	–	–
O=C(O)[C@H]1CCCN(c2cc(CN3CCCC34CCN(C(=O)OC(C(F)(F)F)C(F)(F)F)CC4)cc(C(F)(F)F)c2)C1 [Example 213]	–	–	–	< 25%	–	< 25%	–	> 75%	–	–	–	–
O=C(O)C1COCCN1c1cc(C(F)(F)F)ccc1CN1CCC2(CCN(C(=O)OC(C(F)(F)F)C(F)(F)F)CC2)C1 (stereo not drawn) [Example 220]	–	–	–	< 25%	–	< 25%	–	25 to 75%	–	–	–	–
O=C(O)C1CCCCN1c1cc(C(F)(F)F)ccc1CN1CCC2(CCN(C(=O)OC(C(F)(F)F)C(F)(F)F)CC2)C1 (stereo not drawn) [Example 224]	–	–	–	–	–	–	–	–	–	< 25%	< 25%	25 to 75%
O=C(O)c1cccc(CN2CCCC23CCN(C(=O)OC(C(F)(F)F)C(F)(F)F)CC3)c1 [Example 242]	–	–	–	–	–	–	–	–	–	25 to 75%	< 25%	25 to 75%
O=C(O)c1ccc(CN2CCCC23CCN(C(=O)OC(C(F)(F)F)C(F)(F)F)CC3)cc1 [Example 250]	–	–	–	–	–	–	–	–	–	< 25%	< 25%	> 75%
O=C(O)c1ccccc1CN1CCCC12CCN(C(=O)OC(C(F)(F)F)C(F)(F)F)CC2 [Example 251]	–	–	–	–	–	–	–	–	–	< 25%	< 25%	25 to 75%
COc1ccc(CN2CCCC23CCN(C(=O)OC(C(F)(F)F)C(F)(F)F)CC3)cc1C(=O)O [Example 254]	–	–	–	–	–	–	–	–	–	< 25%	< 25%	25 to 75%
Cc1ccc(CN2CCCC23CCN(C(=O)OC(C(F)(F)F)C(F)(F)F)CC3)cc1C(=O)O [Example 257]	–	–	–	–	–	–	–	–	–	< 25%	< 25%	< 25%
O=C(O)C1CCCCN1c1cc(C(F)(F)F)ccc1CN1CCCC12CCN(C(=O)OC(C(F)(F)F)C(F)(F)F)CC2 (stereo not drawn) [Example 259]	–	–	–	–	–	–	–	–	–	< 25%	< 25%	< 25%
NC(=O)C1CCN(c2cc(C(F)(F)F)ccc2CN2CCCC23CCN(C(=O)OC(C(F)(F)F)C(F)(F)F)CC3)CC1 [Example 273]	–	–	–	–	–	–	–	–	–	25 to 75%	< 25%	> 75%

Reference: patent publication US10030020B2, “Spirocycle compounds and methods of making and using same” (Abide Therapeutics, Inc., priority 2016, dated 2018)
